The subject of one series is DENV2 CprME/JEV SRIPs. Nature of the series: E protein-mediated attachment assay with chimeric DENV2 CprME/JEV SRIPs on Vero E6 cells. Format: cell-based, Dengue virus type 2. As to conditions: Dengue virus, DENV2, Vero C1008, 1 h, read-out: IC50 of E-mediated attachment against DENV2 CprME/JEV SRIPs. As for the experimental part:
(§1) Figure 6 Attachment inhibition of chimeric DENV2 CprM-E/JEV and wild-type JEV SRIPs by active GL conjugates. Vero E6 cells were pre-cooled and incubated with freshly prepared mixtures of DENV2 CprM-E/JEV or wild-type JEV SRIPs, with active GL derivatives 3 (A), 6 (B), 11 (C), and 21 (D) at 4 °C for 1 h, respectively. After the removal of the mixtures, the cells were kept at 37 °C for 18 h and then an immunofluorescent assay with anti-JEV NS5 antibodies plus DAPI staining was performed. Finally, the inhibition percentage of SRIP attachment infectivity was measured as follows: 1-(percentage of JEV NS5 positivity in treated cells/percentage of JEV NS5 positivity in mock-treated cells). * p < 0.05; *** p < 0.001 compared with untreated, infected cells.
(§2) DNA-launched cytomegaloviruses (CMV) promoter-driven JEV and ZIKV replicons had been constructed, as described in our prior reports. […] After the removal of the mixture (the compound and SRIP), the cells were incubated at 37 °C for 18 h, and then were analyzed by immunofluorescent assay with anti-JEV NS3 and anti-ZIKV NS5 antibodies, respectively, plus DAPI staining for determining the residual infectivity of wild-type and chimeric SRIPs, as described above.

Another series deals with DENV2 prME/ZIKV SRIPs. Put plainly: E protein-mediated attachment assay with chimeric DENV2 prME/ZIKV SRIPs on Vero E6 cells. Format: cell-based, Dengue virus type 2. As to conditions: Vero C1008, 1 h, read-out: IC50 of E-mediated attachment against DENV2 prME/ZIKV SRIPs. Here is the method:
(§3) Figure 7 Attachment inhibition of chimeric DENV2 prM-E/ZIKV and wild-type ZIKV SRIPs by active GL derivatives 3 and 11. Vero E6 cells were pre-cooled and incubated with fresh-prepared mixtures of DENV2 prM-E/ZIKV or wild-type ZIKV SRIPs, with active GL derivatives 3 (A), and 11 (B) at 4 °C for 1 h, respectively. After the removal of the mixtures, the cells were kept at 37 °C for 18 h and then an immunofluorescent assay with anti-ZIKV NS1 antibodies plus DAPI staining was performed. Finally, the inhibition percentage of SRIP attachment infectivity was measured as follows: 1-(percentage of ZIKV NS1 positivity in treated cells/ percentage of ZIKV NS1 positivity in mock-treated cells). * p < 0.05; *** p < 0.001 compared with untreated, infected cells.
as §2

The test system of another series is wild-type ZIKV SRIPs. Put plainly: Attachment assay with wild-type ZIKV SRIPs on Vero E6 cells. Format: cell-based, Zika virus. The conditions noted are these: 4 °C for 1 h. Here is the method: as §3, §2
The nature of series [1]: MTT cytotoxicity assay in Vero E6 cells. Format: cell-based. The conditions noted are these: African green monkey. As for the experimental part: (§4) Vero E6 cells and A549 cells (5 × 10^3 cells/well) were treated with the serial dilution of GL conjugates at 0, 0.1, 10, 20, and 50 μM for examining the in vitro cytotoxicity of tested compounds. After 96-h incubation at 37 °C, the cells were incubated with MTT (3-(4,5-Dimethylthiazol-2-yl)-2,5-Diphenyltetrazolium Bromide) solution for another 4 h incubation, mixed with DMSO for 15 min after the removal of media, and then measured the absorbance at 570 nm. The viability (%) of treated cells was quantified according to the reduced ability of MTT. Finally, the concentration for reducing 50% cell viability (the 50% cytotoxic concentration, CC50) was determined by regression analysis of the concentration–response survival curve.

The next series deals with DENV2. Put plainly: DENV2 yield reduction assay (TCID50) in Vero E6 cells. Format: cell-based, Dengue virus type 2. As for the experimental part:
Ten-fold serial dilutions of the cultured media of treated/infected cells harvested in the antiviral potency assay were applied to a monolayer of Vero E6 cells in the 96-well plates. After 96-h incubation, the number of CPE in each well of the dilution was calculated, and the indicated dilution with a 50% positivity rate of CPE in the cell culture was expressed as the […] (50%) tissue culture infectious dose (TCID50).

Series [2] is described as follows: MTT cytotoxicity assay in A549 cells. In kind it is cell-based. The conditions noted are these: human. Here is the method:
as §4

In a further series the test system is wild-type JEV SRIPs. Nature of the series: Attachment assay with wild-type JEV SRIPs on Vero E6 cells. Format: cell-based, Japanese encephalitis virus. As to conditions: 4 °C for 1 h. As for the experimental part:
as §1, §2

Setting [3] is: Dengue virus, DENV2, Vero C1008, 96 h, read-out: IC50 on the viral yield of DENV2, Vero E6 cells, TCID50 assay, 96 h.

The values below come from paper PMC9499324, “Glycyrrhizic Acid Derivatives Bearing Amino Acid Residues in the Carbohydrate Part as Dengue Virus E Protein Inhibitors: Synthesis and Antiviral Activity” (International Journal of Molecular Sciences, 2022).

pIC50: −log10 of the molar value. Where two headings read alike, the source gives them in different places.

Turning to `COC(=O)[C@H](NC(=O)[C@H]1O[C@@H](O[C@H]2[C@H](OC3CC[C@@]4(C)C(CC[C@]5(C)C4C(=O)C=C4C6C[C@@](C)(C(=O)O)CC[C@]6(C)CC[C@]45C)C3(C)C)O[C@H](C(=O)N[C@@H](C(=O)OC)C(C)C)[C@@H](O)[C@@H]2O)[C@H](O)[C@@H](O)[C@@H]1O)C(C)C` (stereo partly drawn) [Compound 3, 3-O-{2-O-[N-(β-D-Glucopyranosyluronoyl)-D-valinemethyl ester]-N-(β-D-glucopyranosyluronoyl)-D-valinemethyl ester}-(3β, 20β)-11-oxo-30-noroleane-12-ene-30-oic Acid], the pIC50 with DENV2 CprME/JEV SRIPs is 5.17; with DENV2 prME/ZIKV SRIPs it was 5.55; in the series on DENV2 (setting [3]), 6.30. Moreover, in the series on wild-type ZIKV SRIPs, the “Attachment of wild-type ZIKV SRIPs onto Vero E6 cells” value is given as “did not impede”. Besides, the CC50 at 96 h in series [1] and in series [2] was over 100000 nM in each case. For the same compound, the “Attachment of wild-type JEV SRIPs onto Vero E6 cells” value with wild-type JEV SRIPs is given as “did not impede”.
With `CCOC(=O)[C@H](Cc1ccccc1)NC(=O)[C@H]1O[C@@H](O[C@H]2[C@H](OC3CC[C@@]4(C)C(CC[C@]5(C)C4C(=O)C=C4C6C[C@@](C)(C(=O)O)CC[C@]6(C)CC[C@]45C)C3(C)C)O[C@H](C(=O)N[C@@H](Cc3ccccc3)C(=O)OCC)[C@@H](O)[C@@H]2O)[C@H](O)[C@@H](O)[C@@H]1O` (stereo partly drawn) [Compound 11, 3-O-{2-O-[N-(β-D-Glucopyranosyluronoyl)-L-phenylalanineethyl ester]-N-(β-D-Glucopyranosyluronoyl)-L-phenylalanineethyl ester}-(3β, 20β)-11-oxo-30-noroleane-12-ene-30-oic Acid], the pIC50 with DENV2 CprME/JEV SRIPs was 5.55; in the series with DENV2 prME/ZIKV SRIPs it was 5.90; with DENV2 (setting [3]), 6.70; in the series with DENV2 (read-out: IC50 on the viral yield of DENV2, Vero E6 cells, TCID50 assay, 96 h), 6.77. In the series on wild-type ZIKV SRIPs, the “Attachment of wild-type ZIKV SRIPs onto Vero E6 cells” value was “did not impede”. Besides, the CC50 at 96 h in series [1] and in series [2] was over 100000 nM each time. Also, the “Attachment of wild-type JEV SRIPs onto Vero E6 cells” value in the series with wild-type JEV SRIPs is “did not impede”.

For orientation: CC50 means the concentration at which the toxic effect on the cells reaches its halfway point.
